Results reported in US20190337899A1, “QUINOLINE SULFONAMIDES USEFUL TO TREAT DISEASE” (priority 2015, published 2019).

Assays:
SERCA = target: T1, SERCA (Homo sapiens, UniProt P16615); experiment: Ca-ATPase assay (NADH-linked, enzyme-coupled ATPase assay); assay type: biochemical; conditions: microsomal preparations from HEK 293 cells, Vmax from Hill fit of ATPase calcium-dependence
T1 construct: microsomal preparations from HEK 293 cells; endogenous in cells; host or cells: HEK 293 cells (microsomal preparation)
Protocol: A Ca-ATPase assay was performed using microsomal preparations from HEK 293 cells at a series of calcium concentrations corresponding to the physiological range, relative to controls. The ATP hydrolysis rate was measured over a range of calcium concentrations in the presence of test compounds using an NADH-linked, enzyme-coupled ATPase assay adapted for 96-well microplates, with Vmax determined by fitting the ATPase calcium-dependence to the Hill function. Each well contained 2 μg or 7 μg of SR vesicles (optimized for skeletal or cardiac SR, respectively), 50 mM MOPS (pH 7.0), 100 mM KCl, 5 mM MgCl2, 1 mM EGTA, 0.2 mM NADH, 1 mM phosphoenol pyruvate, 5 IU pyruvate kinase, 5 IU lactate dehydrogenase, and 3.5 μg/mL A23187 (a calcium ionophore). CaCl2 was added to set free [Ca^2+] to the specific values. The assay was started upon addition of ATP at a final concentration of 5 mM, and read in a SpectraMax Plus microplate spectrophotometer. The results are summarized in Table 4, where A represents an increase in SERCA Vmax greater than 50% and B represents a value greater than 10% and less than or equal to 50%.

HEK293 cells; N2a cells = experiment: Cell rescue assay: protection against thapsigargin (TG)-induced cell-death (AlamarBlue); assay type: cell-based, Human (HEK293); Mouse (N2a); conditions: Homo sapiens; compound at 20 μM, 2 hrs before thapsigargin (15 μM HEK293, 1 μM N2a), 24 hrs, viability as % RFU of control; read-out: Cell Survival %
Protocol: Protection against Thapsigargin (TG)-induced Cell-death. Human embryonic kidney (HEK293) cells were grown in Dulbecco's Modified Eagle's Medium (DMEM) with 10% FBS and 1% antibiotic antimycotic solution (ABAM). Mouse neuroblastoma (N2a) cells were grown in 1:1 DMIEM:OPTI-MIEM® with 5% FBS and 1% ABAM. All cells were grown in 10% CO2 in a humidified environment of the incubator. Cells grown in 96-well plates were exposed to a test compound (20 μM) for 2 hrs before addition of thapsigargin (15 μM for HEK293 cells and 1 μM for N2a cells) to induce ER stress. After incubation in cell-culture incubator for 24 hrs, ALAMARBLUE® regent (10% v/v) was added to the wells. Fluorescence reading was taken 2 hrs after the addition of the ALAMARBLUE® regent. Cell-viability was calculated as a percentage of relative fluorescence unit (RFU) compared to control. […] The biological results are summarized in Table 2, where each compound was tested at 20 μM and where A represents a viability greater than 50%, B represents a viability greather than 10% and less than or equal to 50%, C represents a value equal to or below 10% and greater than 1%.

SH-SY5Y cells = experiment: Cell rescue assay: protection against β-amyloid-induced cell toxicity; assay type: cell-based; conditions: Homo sapiens, 96 h, 7.5 uM compound, AB1-42 at 10 uM, 4 days, OD 490 nm, read-out: Cell Survival % (cell rescue)
Protocol: Protection against β-amyloid-induced cell toxicity. Chonpathompikunlert et al. Eu. J. Pharmacol. 2011, 650, 544-549. Human SH-SY5Y cells are suspended in media containing 2% FBS and 2X Gentamicin. Transfer 100 ul/well culture to 96-well plate (20,000 cells/well; passage #5) and incubate overnight. Prepare compound samples at 30 uM. Add 50 ul of the samples to the cells [[…]] and incubate 3 hours. Make stock of 40 uM AB1-42 peptide in assay media. Transfer 50 ul/well to cells/compounds in assay plate. The final assay volume is 200 ul/well, containing 2% FBS, 2× Gentamicin, 7.5 uM compound and AB1-42 at 10 uM. Incubate for 4 days then add 20 µl of Promega Substrate Cell Titer 96 Aqueous One Solution Reagent to each well. Incubate 37° C. and read OD at 490 nm. The results are summarized in Table 3, where A represents a value greater than 50% cell rescue, B represents a value greater than 10% and less than or equal to 50% cell rescue, and C represents a value greater than 1% and less than or equal to 10% cell rescue.

Ob/ob mice = experiment: Effect of a SERCA agonist on the level of blood glucose; assay type: in vivo; conditions: Mus musculus, ip, 96 h, 50 mg/kg i.p. once a day for 5 days, fasting glucose 4 days after administration vs baseline, read-out: Glucose level reduction
Protocol: Ob/ob mice (10 weeks old, n=7) were intraperitoneally (i.p.) injected with 100 μL of a solution containing 0 (vehicle) or 50 mg/kg of a test compound once a day for a total of 5 days. Fasting glucose was measured at baseline and 4 days after the administration of the test compound. Glucose levels were measured in blood samples drawn from the tail vein using a handheld glucose sensor. Compound effects on blood glucose are shown in Table 5 where A represents a 10-20% reduction in blood glucose, B represents a 21-30% reduction in blood glucose, and C represents a greater than 30% reduction in blood glucose levels.

CSM14.1 neuronal cells = experiment: Cell survival assay (thapsigargin-treated CSM14.1 neuronal cells, CellTiter-Glo); assay type: cell-based; conditions: compound 2 hrs before about 15 μM thapsigargin, overnight, CellTiter-Glo luminescence
Protocol: CSM14.1 neuronal cells were maintained in Complete Medium at 32 ° C.; wherein the Complete Medium contained Dulbecco's modified eagle medium (DMEM) with 10% fetal bovine serum (FSB), 1% L-glutamine, 100 IU/mL penicillin, and 100 μg/mL streptomycin. The cells were recovered from cultures by trypsinization and then seeded in 384 well plates (Greiner #781098) at a concentration of 1,000 cells/well in 20 μL of DMEM Assay Medium, wherein the DMEM Assay Medium contained 2% FBS, 100 IU/mL penicillin, and 100 μg/mL streptomycin. Seeding was performed using a MultiDrop Combi reagent broadcaster. The plates were incubated overnight at 32° C. A test compound was prepared by 2-fold serial dilution in 100% DMSO using a BIOMEK® 2000 liquid handler (Beckman Coulter). A dose-response curve containing 10 concentrations of the test compound was obtained. Using a BIOMEK® FX liquid handler (Beckman Coulter), 2.5 μL of the test compound was transferred from the 100% DMSO serial dilution plate to an intermediate plate containing 47.5 μL of DMEM Assay Medium containing 2% FBS, 100 IU/mL penicillin, and 100 μg/mL streptomycin and mixed. To reduce or eliminate the interference from the compound's precipitation, 6 μL of the diluted compound was immediately transferred to the assay plate to achieve a high compound concentration of 100 μM in 99% DMEM Assay Medium and 1% DMSO. After the assay plates were incubated for 2 hrs, 4 μL of 112.5 μM thapsigargin (TG) (DMSO stock diluted into Assay TC Medium) was dispensed into each testing well with a MultiDrop Combi reagent broadcaster for a final concentration of about 15 μM TG. The tissue culture media (4 μL) containing vehicle only was transferred manually to each control cell using a 16 channel electronic pipette. After the plates were incubated overnight (about 16 to 24 hrs), CELLTITER-GLO® (Promega) (16 μL) was added to all wells and luminescence was measured. High luminescence indicates cell survival. The biological results are summarized in Table 1 where A represents a cell viability EC50 less than 10 μM and B represents a value greater than or equal to 10 μM and less than 20 μM.

T1 sequence (P16615 whole entry): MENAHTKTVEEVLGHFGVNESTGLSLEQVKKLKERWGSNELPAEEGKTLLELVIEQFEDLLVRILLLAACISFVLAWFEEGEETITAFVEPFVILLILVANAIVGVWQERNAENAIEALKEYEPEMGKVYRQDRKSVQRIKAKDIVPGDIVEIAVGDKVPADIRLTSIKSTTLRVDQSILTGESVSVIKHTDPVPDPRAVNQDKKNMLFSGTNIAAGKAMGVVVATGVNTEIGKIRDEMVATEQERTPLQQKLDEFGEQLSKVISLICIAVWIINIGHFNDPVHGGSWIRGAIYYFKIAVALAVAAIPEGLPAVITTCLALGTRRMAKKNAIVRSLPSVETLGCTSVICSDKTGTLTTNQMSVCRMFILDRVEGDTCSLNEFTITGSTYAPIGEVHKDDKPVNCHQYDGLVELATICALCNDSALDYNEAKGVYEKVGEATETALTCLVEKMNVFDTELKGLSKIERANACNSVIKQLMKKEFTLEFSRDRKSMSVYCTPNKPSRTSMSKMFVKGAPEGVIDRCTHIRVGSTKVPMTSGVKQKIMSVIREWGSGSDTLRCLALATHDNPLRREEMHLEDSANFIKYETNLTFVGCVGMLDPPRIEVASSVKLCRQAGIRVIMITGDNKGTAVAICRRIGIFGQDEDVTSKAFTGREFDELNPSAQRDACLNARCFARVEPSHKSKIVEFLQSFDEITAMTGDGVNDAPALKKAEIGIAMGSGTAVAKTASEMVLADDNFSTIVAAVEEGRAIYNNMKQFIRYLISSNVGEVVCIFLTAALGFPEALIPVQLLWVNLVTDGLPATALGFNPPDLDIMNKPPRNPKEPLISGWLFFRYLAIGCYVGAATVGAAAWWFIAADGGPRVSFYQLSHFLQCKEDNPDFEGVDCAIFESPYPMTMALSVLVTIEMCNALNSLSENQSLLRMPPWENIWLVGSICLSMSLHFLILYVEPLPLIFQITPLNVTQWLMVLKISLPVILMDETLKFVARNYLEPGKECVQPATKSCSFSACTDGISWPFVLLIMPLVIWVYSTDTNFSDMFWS

Cc1ccc2cccc(NS(=O)(=O)c3cc(Br)cs3)c2n1 [D8, 4-Bromo-N-(2-methylquinolin-8-yl)thiophene-2-sulfonamide]
SERCA Vmax Increase (SERCA): B (B represents a value greater than 10% and less than or equal to 50%) | viability at 20 µM (HEK293 cells; N2a cells): > 50% | viability at 7.5 µM (SH-SY5Y cells): 10 to 50% | inhibition in vivo at 50 mg/kg (Ob/ob mice): > 30% | EC50 (CSM14.1 neuronal cells): 10 to 20 µM

Cc1ccc2cccc(NS(=O)(=O)c3ccc(C(C)(C)C)cc3)c2n1 [D10, 4-(tent-Butyl)-N-(2-methylquinolin-8-yl)benzenesulfonamide]
SERCA Vmax Increase (SERCA): A (A represents an increase in SERCA Vmax greater than 50%) | viability at 20 µM (HEK293 cells; N2a cells): 10 to 50% | viability at 7.5 µM (SH-SY5Y cells): 10 to 50% | inhibition in vivo at 50 mg/kg (Ob/ob mice): 21 to 30% | EC50 (CSM14.1 neuronal cells): 10 to 20 µM

Cc1ccc2cccc(NS(=O)(=O)c3ccc(C#N)cc3)c2n1 [D6, 4-Cyano-N-(2-methylquinolin-8-yl)benzenesulfonamide]
SERCA Vmax Increase (SERCA): A (A represents an increase in SERCA Vmax greater than 50%) | viability at 20 µM (HEK293 cells; N2a cells): 10 to 50% | viability at 7.5 µM (SH-SY5Y cells): 1 to 10% | inhibition in vivo at 50 mg/kg (Ob/ob mice): 21 to 30% | EC50 (CSM14.1 neuronal cells): 10 to 20 µM

Cc1ccc2cccc(NS(=O)(=O)c3ccc(N(C)C)cc3)c2n1 [D7, 4-Dimethylamino-N-(2-methylquinolin-8-yl)benzenesulfonamide]
SERCA Vmax Increase (SERCA): B (B represents a value greater than 10% and less than or equal to 50%) | viability at 20 µM (HEK293 cells; N2a cells): 10 to 50% | viability at 7.5 µM (SH-SY5Y cells): 1 to 10% | inhibition in vivo at 50 mg/kg (Ob/ob mice): 21 to 30% | EC50 (CSM14.1 neuronal cells): 10 to 20 µM

Cc1ccc2cccc(NS(=O)(=O)c3ccc(C)o3)c2n1 [D9, 5-Methyl-N-(2-methylquinolin-8-yl)furan-2-sulfonamide]
SERCA Vmax Increase (SERCA): B (B represents a value greater than 10% and less than or equal to 50%) | viability at 20 µM (HEK293 cells; N2a cells): 10 to 50% | viability at 7.5 µM (SH-SY5Y cells): 10 to 50% | inhibition in vivo at 50 mg/kg (Ob/ob mice): 10 to 20% | EC50 (CSM14.1 neuronal cells): 10 to 20 µM

COc1c(C)cccc1S(=O)(=O)Nc1cccc2ccc(C)nc12 [D3, 2-Methoxy-3-methyl-N-(2-methylquinolin-8-yl)benzenesulfonamide]
SERCA Vmax Increase (SERCA): A (A represents an increase in SERCA Vmax greater than 50%) | viability at 20 µM (HEK293 cells; N2a cells): 10 to 50% | viability at 7.5 µM (SH-SY5Y cells): 10 to 50% | inhibition in vivo at 50 mg/kg (Ob/ob mice): 10 to 20% | EC50 (CSM14.1 neuronal cells): 10 to 20 µM

Cc1ccc2cccc(NS(=O)(=O)c3ccc(OC(C)C)cc3)c2n1 [D1, 4-Isopropoxy-N-(2-methylquinolin-8-yl)benzenesulfonamide]
SERCA Vmax Increase (SERCA): B (B represents a value greater than 10% and less than or equal to 50%) | viability at 20 µM (HEK293 cells; N2a cells): > 50% | viability at 7.5 µM (SH-SY5Y cells): > 50% | inhibition in vivo at 50 mg/kg (Ob/ob mice): > 30% | EC50 (CSM14.1 neuronal cells): < 10 µM

Cc1ccc2cccc(NS(=O)(=O)c3ccc(C(F)(F)F)cc3)c2n1 [D5, 4-Trifluoromethyl-N-(2-methylquinolin-8-yl)benzenesulfonamide]
SERCA Vmax Increase (SERCA): A (A represents an increase in SERCA Vmax greater than 50%) | viability at 20 µM (HEK293 cells; N2a cells): > 50% | viability at 7.5 µM (SH-SY5Y cells): 10 to 50% | inhibition in vivo at 50 mg/kg (Ob/ob mice): 21 to 30% | EC50 (CSM14.1 neuronal cells): < 10 µM

Cc1ccc2cccc(NS(=O)(=O)c3cc4ccccc4s3)c2n1 [D4, N-(2-Methylquinolin-8-yl)benzo[b]thiophene-2-sulfonamide]
SERCA Vmax Increase (SERCA): B (B represents a value greater than 10% and less than or equal to 50%) | viability at 20 µM (HEK293 cells; N2a cells): > 50% | viability at 7.5 µM (SH-SY5Y cells): 10 to 50% | inhibition in vivo at 50 mg/kg (Ob/ob mice): > 30% | EC50 (CSM14.1 neuronal cells): 10 to 20 µM

CCOc1ccc(S(=O)(=O)Nc2cccc3ccc(C)nc23)cc1 [D2, 4-Ethoxy-N-(2-methylquinolin-8-yl)benzenesulfonamide]
SERCA Vmax Increase (SERCA): A (A represents an increase in SERCA Vmax greater than 50%) | viability at 20 µM (HEK293 cells; N2a cells): 10 to 50% | viability at 7.5 µM (SH-SY5Y cells): > 50% | inhibition in vivo at 50 mg/kg (Ob/ob mice): > 30% | EC50 (CSM14.1 neuronal cells): < 10 µM
